Data set [1] deals with T1, ITK (Homo sapiens, UniProt Q08881).
T1 sequence (Q08881 1-620): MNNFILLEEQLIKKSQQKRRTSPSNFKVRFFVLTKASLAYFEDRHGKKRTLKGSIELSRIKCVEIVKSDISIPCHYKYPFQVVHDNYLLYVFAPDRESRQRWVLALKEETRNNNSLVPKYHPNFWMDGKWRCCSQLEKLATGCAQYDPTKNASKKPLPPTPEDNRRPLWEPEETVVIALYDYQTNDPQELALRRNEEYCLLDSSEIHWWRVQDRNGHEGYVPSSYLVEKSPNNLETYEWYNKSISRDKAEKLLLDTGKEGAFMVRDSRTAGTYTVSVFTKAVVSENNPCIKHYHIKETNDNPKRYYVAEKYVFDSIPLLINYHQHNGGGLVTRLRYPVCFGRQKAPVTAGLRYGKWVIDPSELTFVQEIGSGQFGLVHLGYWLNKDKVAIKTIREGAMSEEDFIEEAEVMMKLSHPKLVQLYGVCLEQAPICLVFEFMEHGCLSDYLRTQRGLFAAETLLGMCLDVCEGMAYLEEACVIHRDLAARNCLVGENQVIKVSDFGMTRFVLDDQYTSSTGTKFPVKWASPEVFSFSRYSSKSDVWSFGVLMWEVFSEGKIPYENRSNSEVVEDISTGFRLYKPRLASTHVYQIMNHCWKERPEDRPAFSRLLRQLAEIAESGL
Description: ITK degradation in DERL-2 cells (immunoblot). The class given is cell-based. On the set-up: endogenous in cells; host or cells: DERL-2 cells. As to the method: (§1) DERL-2 cells (hepatosplenic T-cell lymphoma) were treated with compound 1 for either 4 hours (FIG. 1A) or 18 hours (FIG. 1B) at the indicated doses. After treatment, DERL-2 cells were lysed in Cell Lysis Buffer (Cell Signaling Technology®) on ice for 30 minutes and lysates were clarified by centrifugation. Immunoblotting for ITK was performed to evaluate changes in protein levels upon ITK degrader treatment. All samples were run with equal total protein content and immunoblotting was performed using antibodies that detect total ITK protein as well as GAPDH as a loading control followed by washing and binding of horseradish peroxidase (HRP)-conjugated secondary antibodies. Blots were developed using SuperSignal™ Pico chemiluminescent substrate (Thermo Scientific).
as §1, with “cells” for “cells (hepatosplenic T-cell lymphoma)”, “compound 1, compound 2 or ITK inhibitor (BMS509744)” for “compound 1”, “for” for “for either 4 hours (FIG. 1A) or”, “(FIG. 2)” for “(FIG. 1B)”, “After 18 hours,” for “After treatment,”
Background: A western blot detects proteins with antibodies after separation by electrophoresis.

The next data set concerns Molt4 cells. As to the kind of experiment: Proteome-wide profiling by TMT quantitative mass spectrometry. The conditions noted are these: 100 nM, 5 hours. Format: cell-based. As to the method: Proteome-wide profiling experiments were performed according to the reported protocol (B. Jiang et al., Angew. Chem. Int. Ed. Engl. 58:6321-6326 (2019)). Molt4 cells were treated with DMSO vehicle, 100 nM of compound 1 or 100 nM of compound 2 for 5 hours. Protein abundance measurements were made using TMT quantitative mass spectrometry and significant changes were assessed by moderated t-test as implemented in the limma package. The log2 fold change (log2 FC) is shown on the […] and negative log10 p value (−log10 p value) on the […] for three independent biological replicates of each treatment.

Another data set deals with DERL-2 cells. Description: Cell proliferation and cell death (PI, flow cytometry) of DERL-2 cells in culture with IL-2. Format: cell-based. How it is done: DERL-2 cells supplemented in culture with IL-2 (FIG. 4A) or without IL-2 (FIG. 4B and FIG. 4C) were treated with compound 1 at the indicated doses. Cells were split at 1:5 ratio with fixed concentration of compound 1 every two days. Cell numbers and cell death were quantified by flow cytometry. Propidium iodide (PI) solution, a marker of cell death, was added to cells 5 minutes before flow cytometry detection. Percent PI-positive is used to quantify cell death.
DERL-2 cells in culture with IL-2 were treated with either 1 μM of compound 1, 1 μM BMS509744 or DMSO. Cells were split at 1:5 ratio and fresh compounds were added every two days. Cell numbers and cell death were quantified by flow cytometry. PI solution was added to cells 5 minutes before flow cytometry detection to indicate cell death.
(In general: In flow cytometry, cells or beads pass a laser one at a time.)

Data set [2] concerns the target T1, ITK. Description: ITK degradation in DERL-2 cells with NAE inhibitor MLN4924 co-treatment. Format: cell-based. Further details: endogenous in cells; host or cells: DERL-2 cells. As to conditions: 18 hours, combination with NAE inhibitor MLN4924. As to the method: DERL-2 cells were treated with compound 1, the NEDD8-activating enzyme (NAE) inhibitor MLN4924, or in combination for 18 hours (FIG. 3) at […]. After 18 hours, DERL-2 cells were lysed in Cell Lysis Buffer (Cell Signaling Technology®) on ice for 30 minutes and lysates were clarified by centrifugation. Western blot was performed as described in Example 7.

The next data set deals with Hut78 cells. Description: Cell growth and cell death (PI, flow cytometry) of Hut78 cells. Format: cell-based. The conditions noted are these: Hut78 cells (independent of IL-2).
In data set [3] the target is T1, ITK. Description: ITK degradation in Hut78 cells (immunoblot). Format: cell-based. Further details: endogenous in cells. The conditions noted are these: 1 μM, 18 hours. How it is done: Hut78 cells (mycosis fungoides and Sezary syndrome) were treated with or without 1 μM of compound 1 for 18 hours. After treatment, Hut78 cells were lysed in Cell Lysis Buffer (Cell Signaling Technology®) on ice for 30 minutes and lysates were clarified by centrifugation. Immunoblotting for ITK was performed as described in Example 7 to evaluate changes in protein levels upon ITK degrader treatment.

In data set [4] the target is T1, ITK. As to the kind of experiment: ITK degradation in DERL-2 cells after pre-treatment with excess BMS509744. The conditions noted are these: 10 μM BMS509744 4 hours, then 100 nM compound 1 4 hours. Further details: endogenous in cells; host or cells: DERL-2 cells. Format: cell-based. As to the method: DERL-2 cells were pre-treated with or without 10 μM BMS509744 for 4 hours. After 4 hours, 100 nM compound 1 was added and cells were cultured for another 4 hours. After treatment, DERL-2 cells were lysed in Cell Lysis Buffer (Cell Signaling Technology®) on ice for 30 minutes and lysates were clarified by centrifugation. Western blot was performed as described in Example 7 to detect protein expression levels of ITK, IKZF1, IKZF3, and GAPDH.

Data set [5] has as its target T1, ITK. As to the kind of experiment: In vivo ITK degradation in Hut78 xenograft tumors. On the set-up: endogenous in cells; host or cells: Hut78 cells (in culture; or engrafted subcutaneously in NSG mice and purified from tumours); species or system mouse. As to conditions: female NSG mice, engrafted Hut78 cells, 50 mg/kg intraperitoneal, 3 doses every 8 hours, 4 hours after last dose. As to the method: In vivo degradation studies were conducted using female NSG mice. 6 eight-week-old NSG mice were injected subcutaneously with 1*10^7 of Hut78 cells. The injected mice were monitored for tumor formation twice a week until tumor growth reaches an average of 500 mm^3. Mice were then randomized into 3 mice per group, and treated with either vehicle (7.5% DMSO, 20% (2-hydroxypropyl)-β-cyclodextrin [HP-β-CD]) or compound 1 at 50 mg/kg via intraperitoneal injection for 3 doses (every 8 hours×3). Four hours after the last doing, mice were sacrificed to harvest tumors. Tumor tissues were cut into small pieces and dissociated into single cell suspension following the instruction of Tumor Dissociation Kit (Miltenyi Biotec, #130-095-929). Suspension cells were then depleted of mouse cells (Catalog #19849, STEMCELL technology). Purified tumor cells were lysed in Cell Lysis Buffer (Cell Signaling Technology®) on ice for 30 minutes and lysates were clarified by centrifugation. Immunoblotting for ITK was performed as described in Example 7 to evaluate protein level changes.

Data set [6] can be described thus: Mouse pharmacokinetic (PK) study. Format: in vivo. As to the method:
Standard PK studies were conducted using male C57BI/6 mice obtained from Scripps Fla. A single 2 mg/kg intravenous (IV) injection of compound 1 solution in 5/90 DMSO/10% Captisol® was evaluated. Plasma concentrations of compound 1 reported at each of the 8 time points (5 min, 15 min, 30 min, 1 h, 2 h, 4 h, 6 h and 8 h post dosing) are the average values from 3 test animals.

Setting [7] is: DERL-2 cells supplemented with IL-2.
Where [8] appears, read: mouse, male C57BI/6 mice, single 2 mg/kg IV, plasma.

Where “and” joins values, the source holds several entries; their conditions need not be identical. Identical values can stand only once. A value given as a limit tells only on which side of the number the result lay.

The AUC(0-t) is the area under the concentration-time curve up to a stated or last time point. The term Cmax denotes the highest concentration seen after dosing. One may read the Tmax as the time at which the peak concentration occurs. What is called half-life is how long it takes for the measured level to halve. A higher half-life goes with slow loss. For `COc1cc(C)c(Sc2cnc(NC(=O)c3ccc(N4CCN(CCCCCCCNC(=O)COc5cccc6c5C(=O)N(C5CCC(=O)NC5=O)C6=O)CC4)cc3)s2)cc1C(=O)N1CCN(C(C)=O)CC1` (stereo not drawn) [compound 1, N-(5-((5-(4-acetylpiperazine-1-carbonyl)-4-methoxy-2-methylphenyl)thio)thiazol-2-yl)-4-(4-(7-(2-((2-(2,6-dioxopiperidin-3-yl)-1,3-dioxoisoindolin-4-yl)oxy)acetamido)heptyl)piperazin-1-yl)benzamide], the “degradation of ITK protein (immunoblot)” value at ITK [1] (4 hours or 18 hours) was “rapid and pronounced degradation of ITK protein”. Further, at ITK [1] (18 hours), the “concentration at which ITK degradation is evident” value is recorded as 1 nM; the “concentration of maximal ITK degradation” value worked out at 1000 nM; the “degradation of ITK protein (immunoblot)” value is “rapid and pronounced degradation of ITK protein”. Besides, the “proteins downregulated (relative protein abundance)” value with Molt4 cells is “downregulated ITK, IKZF1, IKZF3, ZFP91, RNF166, ZNF653 and ZNF692”. In addition, in the data set on DERL-2 cells (setting [7]), the “cell death (percent PI-positive) compared with DMSO” value is “induced cell death” and the “inhibition of cell proliferation compared with DMSO” value is greater than 10 fold. Also, the “cell proliferation and cell death of TCL cells” value with DERL-2 cells (DERL-2 cells with IL-2, 1 μM) was “blocked cell proliferation and induced cell death”. Also, the “ITK degradation induced by compound 1 on treatment with MLN4924” value at ITK [2] is listed as “rescued the degradation”. Further, in the data set on Hut78 cells, the “cell growth and cell death” value was “did not inhibit cell growth or induce cell death”. For the same compound, the “degradation of ITK protein (immunoblot)” value at ITK [3] was “pronounced degradation of ITK protein”. Further, at ITK [4], the “ITK degradation induced by compound 1 after pre-treatment with excess BMS509744” value was “rescued the degradation”. In addition, the “degradation of ITK protein in vivo (immunoblot of purified tumor cells)” value on ITK [5] is “significant degradation of ITK protein in vivo”. In addition, the “AUC % Extrap” value in data set [6] (male C57BI/6 mice, single 2 mg/kg IV, plasma) is listed as 5.14 % Extrap. Also, the “in vivo metabolic stability, exposure and clearance rate (overall assessment)” value in [6] (mouse PK, 2 mg/kg IV) is “good in vivo metabolic stability, exposure and clearance rate”. In [6] (setting [8]), the AUC(0-t) is 1370 ng·h/mL and 1.34 µM·h; the Cmax is 1710 ng/mL and 1.67 µM; the Tmax stood at 4.8 min; the half-life is 2.18 h. In data set [6] (mouse, male C57BI/6 mice, single 2 mg/kg IV, plasma, read-out: AUCINF—obs (converted)), the AUC(0-inf) is 1440 ng·h/mL. For the same compound, in data set [6] (mouse, male C57BI/6 mice, single 2 mg/kg IV, plasma, read-out: Cl—obs), the clearance worked out at 25.2 mL/min/kg. In addition, the MRT inf in data set [6] (mouse, male C57BI/6 mice, single 2 mg/kg IV, plasma, read-out: MRTINF—obs) is 1.96 h. The Vd in [6] (mouse, male C57BI/6 mice, single 2 mg/kg IV, plasma, read-out: VSS—obs) is 2.94 L/kg.
As for `COc1cc(C)c(Sc2cnc(NC(=O)c3ccc(N4CCN(CCCCCCCNC(=O)COc5cc6c7c(cccc7c5)C(=O)N(C5CCC(=O)NC5=O)C6=O)CC4)cc3)s2)cc1C(=O)N1CCN(C(C)=O)CC1` (stereo not drawn) [compound 2, N-(5-((5-(4-acetylpiperazine-1-carbonyl)-4-methoxy-2-methylphenyl)thio)thiazol-2-yl)-4-(4-(7-(2-((2-(2,6-dioxopiperidin-3-yl)-1,3-dioxo-2,3-dihydro-1H-benzo[de]isoquinolin-5-yl)oxy)acetamido)heptyl)piperazin-1-yl)benzamide], on ITK [1] (18 hours), the “concentration at which ITK degradation is evident” value is recorded as 100 nM; the “concentration of maximal ITK degradation” value came out at 1000 nM; the “degradation of ITK protein (immunoblot)” value was “rapid and pronounced degradation of ITK protein”. In the data set on Molt4 cells, the “proteins downregulated (relative protein abundance)” value is “selectively downregulated ITK”.
